Laboratory results: patent US12565522B2, “Micropeptide HMMW and application thereof” (NANJING ANJI BIOTECHNOLOGY CO., LTD., priority 2019, dated 2026)
No end group written: not given here.

Key:
Assay type in all cases: cell-based, human
Details in all cases: 24 h
[1] = system: SW579 cells of thyroid cancer; assay: Matrigel transwell invasion test
Procedure, shortened: (§1)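 Serum-starved human tumour cells invade through air-dried Matrigel toward 10% FBS over 24 h at 37 °C while exposed to peptide at 1, 4 or 16 μM. Invaded cells are fixed, stained with crystal violet and counted in four fields, giving inhibition relative to untreated wells.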

[2] = system: A549 cells of lung cancer; assay: Matrigel transwell invasion test
Procedure, shortened: as §1

[3] = system: SCC4 cells of head and neck cancer; assay: Matrigel transwell invasion test
Procedure, shortened: as §1

[4] = system: TE13 cells of esophageal squamous cell carcinoma; assay: Matrigel transwell invasion test
Procedure, shortened: as §1

[5] = system: MDA-MB-231 cells of breast cancer; assay: Matrigel transwell invasion test
Procedure, shortened: as §1

[6] = system: UOK262 cells of kidney cancer; assay: Matrigel transwell invasion test
Procedure, shortened: as §1

[7] = system: A431 cells of skin cancer; assay: Matrigel transwell invasion test
Procedure, shortened: as §1

[8] = system: MGC803 cells of stomach cancer; assay: Matrigel transwell invasion test
Procedure, shortened: as §1

[9] = system: SW579 cells of thyroid cancer; assay: transwell migration test
[10] = system: A549 cells of lung cancer; assay: transwell migration test
[11] = system: SCC4 cells of head and neck cancer; assay: transwell migration test
[12] = system: MDA-MB-231 cells of breast cancer; assay: transwell migration test
[13] = system: UOK262 cells of kidney cancer; assay: transwell migration test
[14] = system: A431 cells of skin cancer; assay: transwell migration test
[15] = system: MGC803 cells of stomach cancer; assay: transwell migration test

MGSTGVPGFSPRRSSVEAKMQSTSCSVRKSSTVTAWPAVVLLLSWGQRRGG-OH [HMMW-VII]
invasion inhibition rate ([1]; dose 1 μM): 20.11% | invasion inhibition rate ([1]; dose 4 μM): 43.72% | invasion inhibition rate ([1]; dose 16 μM): 63.71% | invasion inhibition rate ([2]; dose 1 μM): 32.22% | invasion inhibition rate ([2]; dose 4 μM): 52.42% | invasion inhibition rate ([2]; dose 16 μM): 64.02% | invasion inhibition rate ([3]; dose 1 μM): 19.70% | invasion inhibition rate ([3]; dose 4 μM): 43.11% | invasion inhibition rate ([3]; dose 16 μM): 70.84% | invasion inhibition rate ([4]; dose 1 μM): 25.11% | invasion inhibition rate ([4]; dose 4 μM): 45.36% | invasion inhibition rate ([4]; dose 16 μM): 67.52% | invasion inhibition rate ([5]; dose 1 μM): 27.91% | invasion inhibition rate ([5]; dose 4 μM): 49.55% | invasion inhibition rate ([5]; dose 16 μM): 74.32% | invasion inhibition rate ([6]; dose 1 μM): 36.74% | invasion inhibition rate ([6]; dose 4 μM): 56.26% | invasion inhibition rate ([6]; dose 16 μM): 67.62% | invasion inhibition rate ([7]; dose 1 μM): 34.70% | invasion inhibition rate ([7]; dose 4 μM): 55.51% | invasion inhibition rate ([7]; dose 16 μM): 69.24% | invasion inhibition rate ([8]; dose 1 μM): 29.50% | invasion inhibition rate ([8]; dose 4 μM): 54.34% | invasion inhibition rate ([8]; dose 16 μM): 69.57% | migration inhibition rate ([9]; dose 1 μM): 20.80% | migration inhibition rate ([9]; dose 4 μM): 53.13% | migration inhibition rate ([9]; dose 16 μM): 70.92% | migration inhibition rate ([10]; dose 1 μM): 35.01% | migration inhibition rate ([10]; dose 4 μM): 53.91% | migration inhibition rate ([10]; dose 16 μM): 71.36% | migration inhibition rate ([11]; dose 1 μM): 17.42% | migration inhibition rate ([11]; dose 4 μM): 44.61% | migration inhibition rate ([11]; dose 16 μM): 72.34% | migration inhibition rate ([12]; dose 1 μM): 28.27% | migration inhibition rate ([12]; dose 4 μM): 50.14% | migration inhibition rate ([12]; dose 16 μM): 72.15% | migration inhibition rate ([13]; dose 1 μM): 19.24% | migration inhibition rate ([13]; dose 4 μM): 40.21% | migration inhibition rate ([13]; dose 16 μM): 72.40% | migration inhibition rate ([14]; dose 1 μM): 32.10% | migration inhibition rate ([14]; dose 4 μM): 52.22% | migration inhibition rate ([14]; dose 16 μM): 70.11% | migration inhibition rate ([15]; dose 1 μM): 26.60% | migration inhibition rate ([15]; dose 4 μM): 51.31% | migration inhibition rate ([15]; dose 16 μM): 70.62%

MGSTYNKRHSPRRSSVEAKMQSTSCSVRKSSTVTAWPAVVLLLSWGQRRGG-OH [HMMW-III]
invasion inhibition rate ([1]; dose 1 μM): 18.63% | invasion inhibition rate ([1]; dose 4 μM): 42.76% | invasion inhibition rate ([1]; dose 16 μM): 63.89% | invasion inhibition rate ([2]; dose 1 μM): 32.13% | invasion inhibition rate ([2]; dose 4 μM): 52.30% | invasion inhibition rate ([2]; dose 16 μM): 66.09% | invasion inhibition rate ([3]; dose 1 μM): 22.75% | invasion inhibition rate ([3]; dose 4 μM): 48.24% | invasion inhibition rate ([3]; dose 16 μM): 75.84% | invasion inhibition rate ([4]; dose 1 μM): 21.23% | invasion inhibition rate ([4]; dose 4 μM): 41.81% | invasion inhibition rate ([4]; dose 16 μM): 63.31% | invasion inhibition rate ([5]; dose 1 μM): 28.91% | invasion inhibition rate ([5]; dose 4 μM): 49.82% | invasion inhibition rate ([5]; dose 16 μM): 68.36% | invasion inhibition rate ([6]; dose 1 μM): 34.37% | invasion inhibition rate ([6]; dose 4 μM): 55.15% | invasion inhibition rate ([6]; dose 16 μM): 67.23% | invasion inhibition rate ([7]; dose 1 μM): 33.70% | invasion inhibition rate ([7]; dose 4 μM): 53.21% | invasion inhibition rate ([7]; dose 16 μM): 67.33% | invasion inhibition rate ([8]; dose 1 μM): 25.11% | invasion inhibition rate ([8]; dose 4 μM): 53.38% | invasion inhibition rate ([8]; dose 16 μM): 67.61% | migration inhibition rate ([9]; dose 1 μM): 18.83% | migration inhibition rate ([9]; dose 4 μM): 50.04% | migration inhibition rate ([9]; dose 16 μM): 71.92% | migration inhibition rate ([10]; dose 1 μM): 33.01% | migration inhibition rate ([10]; dose 4 μM): 54.93% | migration inhibition rate ([10]; dose 16 μM): 72.42% | migration inhibition rate ([11]; dose 1 μM): 16.81% | migration inhibition rate ([11]; dose 4 μM): 43.94% | migration inhibition rate ([11]; dose 16 μM): 74.01% | migration inhibition rate ([12]; dose 1 μM): 27.06% | migration inhibition rate ([12]; dose 4 μM): 51.34% | migration inhibition rate ([12]; dose 16 μM): 74.38% | migration inhibition rate ([13]; dose 1 μM): 16.39% | migration inhibition rate ([13]; dose 4 μM): 41.38% | migration inhibition rate ([13]; dose 16 μM): 70.47% | migration inhibition rate ([14]; dose 1 μM): 32.13% | migration inhibition rate ([14]; dose 4 μM): 54.27% | migration inhibition rate ([14]; dose 16 μM): 72.21% | migration inhibition rate ([15]; dose 1 μM): 25.61% | migration inhibition rate ([15]; dose 4 μM): 52.45% | migration inhibition rate ([15]; dose 16 μM): 74.80%

MGSTYNPGFSPRRSSVEAKMQSTSCSVRKSSTVTAWPAVVLLLSWGQRRGG-OH [HMMW-V]
invasion inhibition rate ([1]; dose 1 μM): 19.09% | invasion inhibition rate ([1]; dose 4 μM): 44.23% | invasion inhibition rate ([1]; dose 16 μM): 64.14% | invasion inhibition rate ([2]; dose 1 μM): 31.19% | invasion inhibition rate ([2]; dose 4 μM): 51.27% | invasion inhibition rate ([2]; dose 16 μM): 64.25% | invasion inhibition rate ([3]; dose 1 μM): 20.34% | invasion inhibition rate ([3]; dose 4 μM): 46.26% | invasion inhibition rate ([3]; dose 16 μM): 74.71% | invasion inhibition rate ([4]; dose 1 μM): 20.29% | invasion inhibition rate ([4]; dose 4 μM): 42.74% | invasion inhibition rate ([4]; dose 16 μM): 66.69% | invasion inhibition rate ([5]; dose 1 μM): 27.25% | invasion inhibition rate ([5]; dose 4 μM): 48.37% | invasion inhibition rate ([5]; dose 16 μM): 70.50% | invasion inhibition rate ([6]; dose 1 μM): 33.43% | invasion inhibition rate ([6]; dose 4 μM): 53.27% | invasion inhibition rate ([6]; dose 16 μM): 66.14% | invasion inhibition rate ([7]; dose 1 μM): 32.19% | invasion inhibition rate ([7]; dose 4 μM): 51.35% | invasion inhibition rate ([7]; dose 16 μM): 69.29% | invasion inhibition rate ([8]; dose 1 μM): 26.53% | invasion inhibition rate ([8]; dose 4 μM): 50.24% | invasion inhibition rate ([8]; dose 16 μM): 68.38% | migration inhibition rate ([9]; dose 1 μM): 17.45% | migration inhibition rate ([9]; dose 4 μM): 51.13% | migration inhibition rate ([9]; dose 16 μM): 71.93% | migration inhibition rate ([10]; dose 1 μM): 35.01% | migration inhibition rate ([10]; dose 4 μM): 53.91% | migration inhibition rate ([10]; dose 16 μM): 71.36% | migration inhibition rate ([11]; dose 1 μM): 18.36% | migration inhibition rate ([11]; dose 4 μM): 44.67% | migration inhibition rate ([11]; dose 16 μM): 71.04% | migration inhibition rate ([12]; dose 1 μM): 28.07% | migration inhibition rate ([12]; dose 4 μM): 50.24% | migration inhibition rate ([12]; dose 16 μM): 74.18% | migration inhibition rate ([13]; dose 1 μM): 18.29% | migration inhibition rate ([13]; dose 4 μM): 42.28% | migration inhibition rate ([13]; dose 16 μM): 72.43% | migration inhibition rate ([14]; dose 1 μM): 30.14% | migration inhibition rate ([14]; dose 4 μM): 54.12% | migration inhibition rate ([14]; dose 16 μM): 70.12% | migration inhibition rate ([15]; dose 1 μM): 27.64% | migration inhibition rate ([15]; dose 4 μM): 54.41% | migration inhibition rate ([15]; dose 16 μM): 75.82%
